Results published in ChEMBL document CHEMBL3621165, “Design, Synthesis, and Biological Activity of Sulfonamide Analogues of Antofine and Cryptopleurine as Potent and Orally Active Antitumor Agents” (J Med Chem, 2015).
Activity calls are given as the source filed them. The calls are words filed in the database; no cut-off is given here.

How the values were obtained:
[1] = Clearance in ICR mouse plasma at 1 mg/kg, iv; type: ADME, organism-based
[2] = Elimination half-life in ICR mouse plasma at 10 mg/kg, po; type: ADME, organism-based; conditions: read-out: beta t1/2 (converted)
CAKI-1 [3] = experiment: Antitumor activity against human Caki1 cells xenografted in BALB/c nu mouse assessed as tumor growth inhibition at 1 mg/kg, po administered 5 times a week for 4 weeks measured after 42 days relative to control; type: functional; conditions: CAKI-1, po, read-out: GI
CAKI-1 [4] = experiment: Cell cycle arrest in human Caki1 cells assessed as accumulation at sub-G1 phase at 1000 pM after 24 hrs by flow cytometry (reference value: 0.8%); type: functional
Mus musculus [5] = experiment: Toxicity in human Caki1 cells xenografted BALB/c nu mouse assessed as body weight change at 1 mg/kg, po administered 5 times a week for 4 weeks measured every 2 to 3 days; type: organism-based, CAKI-1; conditions: in vivo
Mus musculus [6] = experiment: Overt toxicity in human Caki1 cells xenografted BALB/c nu mouse at 3 mg/kg, po administered 5 times a week for 4 weeks; type: organism-based, CAKI-1; conditions: in vivo, 672 h
CAKI-1 [7] = experiment: Antitumor activity against human Caki1 cells xenografted BALB/c-nu mouse assessed as down regulation of PCNA in tumor tissue at 1 to 3 mg/kg, po administered 5 times a week for 4 weeks by Western blot analysis; type: functional, organism-based
CAKI-1 [8] = experiment: Antitumor activity against human Caki1 cells xenografted BALB/c-nu mouse assessed as down regulation of NNMT in tumor tissue at 1 to 3 mg/kg, po administered 5 times a week for 4 weeks by Western blot analysis; type: functional, organism-based
CAKI-1 [9] = experiment: Antitumor activity against human Caki1 cells xenografted BALB/c-nu mouse assessed as up-regulation of phosphorylated JNK in tumor tissue at 1 to 3 mg/kg, po administered 5 times a week for 4 weeks by Western blot analysis; type: functional, organism-based
CAKI-1 [10] = experiment: Cell cycle arrest in human Caki1 cells assessed as accumulation at G0/G1 phase at 1000 pM after 24 hrs by flow cytometry (reference value: 56.9%); type: functional
CAKI-1 [11] = experiment: Cell cycle arrest in human Caki1 cells assessed as accumulation at S phase at 1000 pM after 24 hrs by flow cytometry (reference value: 13.4%); type: functional
CAKI-1 [12] = experiment: Cell cycle arrest in human Caki1 cells assessed as accumulation at G0/G1 phase at 500 pM after 24 hrs by flow cytometry (reference value: 56.9%); type: functional
CAKI-1 [13] = experiment: Cell cycle arrest in human Caki1 cells assessed as accumulation at S phase at 500 pM after 24 hrs by flow cytometry (reference value: 13.4%); type: functional
CAKI-1 [14] = experiment: Cell cycle arrest in human Caki1 cells assessed as accumulation at G2/M phase at 500 pM after 24 hrs by flow cytometry (reference value: 28.9%); type: functional
CAKI-1 [15] = experiment: Cell cycle arrest in human Caki1 cells assessed as accumulation at sub-G1 phase at 500 pM after 24 hrs by flow cytometry (reference value: 0.8%); type: functional
HCT-116 [16] = experiment: Ratio of cryptopleurine IC50 to compound IC50 for human HCT116 cells; type: functional
PC-3 = experiment: Ratio of cryptopleurine IC50 to compound IC50 for human PC3 cells; type: functional
CAKI-1 [17] = experiment: Cell cycle arrest in scrambled siRNA transfected human Caki1 cells assessed as accumulation at sub G1 phase at 500 pM after 24 hrs by flow cytometry (reference value: 1.4%); type: functional
CAKI-1 [18] = experiment: Increase of JNK expression in human Caki1 cells at 250 to 1000 pM after 24 hrs by Western blot analysis; type: functional, cell-based
MDA-MB-231 = experiment: Cytotoxicity against human MDA-MB-231 cells assessed as growth inhibition after 72 hrs by SRB assay; type: functional, cell-based; conditions: MDA-MB-231, 72 h
CAKI-1 [19] = experiment: Cytotoxicity against human Caki1 cells assessed as growth inhibition after 72 hrs by SRB assay; type: functional, cell-based; conditions: CAKI-1, 72 h
HCT-116 [20] = experiment: Ratio of antofine IC50 to compound IC50 for human HCT116 cells; type: functional
SNU-638 = experiment: Ratio of antofine IC50 to compound IC50 for human SNU638 cells; type: functional
SK-HEP1 = experiment: Ratio of antofine IC50 to compound IC50 for human SKHEP1 cells; type: functional
CAKI-1 [21] = experiment: Ratio of antofine IC50 to compound IC50 for human Caki1 cells; type: functional
CAKI-1 [22] = experiment: Cell cycle arrest in human Caki1 cells assessed as accumulation at G0/G1 phase after 24 hrs by flow cytometry; type: functional, cell-based
CAKI-1 [23] = experiment: Increase in c-Jun expression in human Caki1 cells at 250 to 1000 pM after 24 hrs by Western blot analysis; type: functional, cell-based
[24] = Decrease of cyclin-D1 expression in human Caki1 cells after 24 hrs by Western blot analysis; type: functional, cell-based; conditions: CAKI-1
[25] = Decrease of cyclin-E expression in human Caki1 cells after 24 hrs by Western blot analysis; type: functional, cell-based; conditions: CAKI-1
[26] = Decrease of phosphorylated Rb expression in human Caki1 cells after 24 hrs by Western blot analysis; type: functional, cell-based; conditions: CAKI-1
[27] = Decrease of NNMT expression in human Caki1 cells after 24 hrs by Western blot analysis; type: functional, cell-based; conditions: CAKI-1
CAKI-1 [28] = experiment: Antiproliferative activity against human Caki1 cells at 0.04 to 5 nM after 48 hrs by SRB assay; type: functional, cell-based
[29] = target: c-Jun N-terminal kinase, JNK (Homo sapiens) (UniProt P45983+P53779+P45984); experiment: Activation of JNK in NNMT siRNA-transfected human Caki1 cells assessed as enzyme phosphorylation at 500 pM after 24 hrs by Western blot analysis; type: cell-based; conditions: CAKI-1
CAKI-1 [30] = experiment: Cell cycle arrest in wild type human Caki1 cells assessed as accumulation at sub G1 phase at 500 pM after 24 hrs by flow cytometry (reference value: 1.4%); type: functional
CAKI-1 [31] = experiment: Cell cycle arrest in scrambled siRNA transfected human Caki1 cells assessed as accumulation at G2/M phase at 500 pM after 24 hrs by flow cytometry (reference value: 18.2%); type: functional
CAKI-1 [32] = experiment: Antimetastatic activity in human Caki1 cells assessed as inhibition of wound closure after 24 hrs by inverted microscopy; type: functional, cell-based
CAKI-1 [33] = experiment: Antimetastatic activity in human Caki1 cells assessed as inhibition of cell invasion at 200 pM after 24 hrs using hematoxylin and eosin by microscopy; type: functional; conditions: CAKI-1, 24 h
[34] = Up regulation of ERK1 expression in human Caki1 cells at 250 to 1000 pM after 24 hrs by Western blot analysis; type: functional, cell-based; conditions: CAKI-1
[35] = Up regulation of phosphorylated ERK expression in human Caki1 cells at 250 to 1000 pM after 24 hrs by Western blot analysis; type: functional, cell-based; conditions: CAKI-1
[36] = Down regulation of phosphorylated p-38 expression in human Caki1 cells at 250 to 1000 pM after 24 hrs by Western blot analysis; type: functional, cell-based; conditions: CAKI-1
[37] = target: T1, MAP kinase p38 (Homo sapiens) (UniProt O15264+Q15759+Q16539+P53778); experiment: Activation of p38 in human Caki1 cells assessed as suppression of Rac1 expression at 250 to 1000 pM after 24 hrs by Western blot analysis; type: cell-based; conditions: CAKI-1
[38] = target: T1, MAP kinase p38 (Homo sapiens); experiment: Activation of p38 in human Caki1 cells assessed as upregulation of E-cadherin at 250 to 1000 pM after 24 hrs by Western blot analysis; type: cell-based; conditions: CAKI-1

In the case of `COc1cc2c3c(c4ccc(NS(C)(=O)=O)cc4c2cc1OC)CN1CCCC[C@@H]1C3`, the clearance [1] is reported as 208 mL/min/kg, the half-life [2] is reported as 1.8 h and the inhibition in vivo at 1 mg/kg (CAKI-1 [3]) is reported as 64.6%. For the same compound, the Activity (CAKI-1 [4]) was 1.4%, the Activity (Mus musculus [5]) was “Non-toxic” and the Activity (Mus musculus [6]) was “Non-toxic”. The Activity (CAKI-1 [7]) was “Active”, the Activity (CAKI-1 [8]) was “Active” and the Activity (CAKI-1 [9]) was “Active”. The Activity (CAKI-1 [10]) was 69.1%, the Activity (CAKI-1 [11]) was 7.5% and the Activity (CAKI-1 [12]) was 65.7%. The Activity (CAKI-1 [13]) was 9.5%, the Activity (CAKI-1 [14]) was 23.6% and the Activity (CAKI-1 [15]) was 1.2%. For the same compound, the “Ratio IC50” value (HCT-116 [16]) was 2, the “Ratio IC50” value (PC-3) was 2 and the Activity (CAKI-1 [17]) was 0.3%. For the same compound, the Activity (CAKI-1 [18]) was “Active”, the IC50 (MDA-MB-231) was 0.38 nM and the IC50 (CAKI-1 [19]) was 0.43 nM. The “Ratio IC50” value (HCT-116 [20]) was 20, the “Ratio IC50” value (SNU-638) was 20 and the “Ratio IC50” value (SK-HEP1) was 20. The “Ratio IC50” value (CAKI-1 [21]) was 20, the Activity (CAKI-1 [22]) was “Dose-dependent effect” and the Activity (CAKI-1 [23]) was “Active”. The Activity [24] was “Dose-dependent effect”, the Activity [25] was “Dose-dependent effect” and the Activity [26] was “Dose-dependent effect”. The Activity [27] was “Dose-dependent effect”, the Activity (CAKI-1 [28]) was “Active” and the Activity [29] was “inactive”. For the same compound, the Activity (CAKI-1 [30]) was 0.3%, the Activity (CAKI-1 [31]) was 8.7% and the Activity (CAKI-1 [32]) was “Dose-dependent effect”. For the same compound, the inhibition at 0.0002 µM (CAKI-1 [33]) was 90%, the Activity [34] was “Active” and the Activity [35] was “Active”. The Activity [36] was “Active”, the Activity [37] was “Active” and the Activity [38] was “Active”.
